Consider nine compounds from ChEMBL document CHEMBL1135188, “Synthesis and anti-tumor activity of novel combretastatins: combretocyclopentenones and related analogues” (Bioorg Med Chem Lett, 2002).

Values after ≈ are worked out from the molar mass of the structure shown.

The subject of one assay is A-431. The experiment in a line: Cytotoxicity expressed as inhibitory concentration required to reduce the cell growth of A431 human epidermal carcinoma cell line. Type of assay: functional, cell-based.
For the next assay, the system named is HCT-116. As to the kind of experiment: Cytotoxicity expressed as inhibitory concentration required to reduce the cell growth of HCT116 human colon carcinoma cell line. It is filed as functional, cell-based.
The next assay concerns B16. As to the kind of experiment: Cytotoxicity expressed as inhibitory concentration required to reduce the cell growth of B16 murine melanoma cell line. It is filed as functional, cell-based. The note with it: Mus musculus.
Assay [1] can be described thus: Inhibition ratio expressed as percentage showing significant anti-tumor activity in BDF1 mice bearing Lewis lung carcinoma cells was determined. Type of assay: functional.

As usually defined, the IC50 is the point on the concentration scale where inhibition reaches its midpoint. In turn, `COc1cccc2c1C(=O)c1c(O)c3c(c(O)c1C2=O)C[C@@](O)(C(=O)CO)C[C@@H]3O[C@H]1C[C@H](N)[C@H](O)[C@H](C)O1` [DOXORUBICIN] had an IC50 in the assay with A-431 of 0.117 µg/mL (≈ 0.215 µM).
As to `COc1ccc(C2=C(c3cc(OC)c(OC)c(OC)c3)C(=O)CC2)cc1`, the half-inhibitory concentration (IC50) with HCT-116 came to 0.021 µg/mL (≈ 0.0593 µM); with A-431, 0.021 µg/mL (≈ 0.0593 µM); in the assay on B16, 0.015 µg/mL (≈ 0.0423 µM).
Consider `COc1ccc(C2=C(c3cc(OC)c(OC)c(OC)c3)CCC2)cc1`, for which the IC50 in the assay with HCT-116 and in the assay on B16 was greater than 1 µg/mL each time.
Consider `COc1ccc(C2=C(c3cc(OC)c(OC)c(OC)c3)C(=O)CC2)cc1O`, for which the values for the IC50 in the assay with HCT-116, in the assay with A-431 and in the assay with B16 were 0.012 µg/mL (≈ 0.0324 µM), 0.009 µg/mL (≈ 0.0243 µM) and 0.013 µg/mL (≈ 0.0351 µM), respectively.
On to `COc1ccc(C2=C(c3cc(OC)c(OC)c(OC)c3)C(O)CC2)cc1` (configuration not stated), for which the IC50 in the assay on HCT-116 was 0.045 µg/mL (≈ 0.126 µM); in the assay on B16, 0.039 µg/mL (≈ 0.109 µM).
In the case of `COc1ccc(C2=C(c3cc(OC)c(OC)c(OC)c3)C(=O)CC2)cc1N`, the IC50 in the assay on HCT-116 was determined as 0.008 µg/mL (≈ 0.0217 µM); in the assay with A-431 it was 0.009 µg/mL (≈ 0.0244 µM); in the assay with B16, 0.008 µg/mL (≈ 0.0217 µM). Moreover, in assay [1], the Ratio came to 59.
In the case of `COc1ccc(C2=C(c3cc(OC)c(OC)c(OC)c3)C(=O)C=C2)cc1`, the IC50 was 0.013 µg/mL (≈ 0.0369 µM) with HCT-116 and 0.011 µg/mL (≈ 0.0312 µM) with B16.
Take `COc1cc(C2=C(c3ccc4ccccc4c3)CCC2=O)cc(OC)c1OC`: the IC50 in the assay on HCT-116 turned out to be 0.031 µg/mL (≈ 0.0828 µM); with A-431 it was 0.034 µg/mL (≈ 0.0908 µM); in the assay with B16 it was 0.029 µg/mL (≈ 0.0774 µM).
As for `COc1ccc(C2=C(c3cc(OC)c(OC)c(OC)c3)COC2)cc1`, the IC50 in the assay on HCT-116 and in the assay on B16 was greater than 1 µg/mL in each case.
